According to PMC9145865, “Effects of Rare Phytocannabinoids on the Endocannabinoid System of Human Keratinocytes” (International Journal of Molecular Sciences, 2022):

Legend:
CB1 [1] = test: qRT-PCR gene expression of CB1; type: cell-based, human; conditions: HaCaT cells, half-IC50 dose, 24 h, vs. control
Experimental: (§1) The HaCaT cells were seeded into 6-well plates at a density of 4 × 10^4 per well, incubated overnight and then treated with the selected pCBs (CBG (6.0 µM), CBC (4.0 µM), THCV (9.0 µM) and CBGA (13.0 µM)) for 24 h. The cell pellets were collected and RT-PCR reactions were performed using the RevertAid H Minus First Strand cDNA Synthesis Kit. The relative abundance was assessed via RT quantitative PCR (RT-qPCR) using the SensiFAST SYBR Lo-ROX Kit in an Applied Biosystems 7500 Fast Real-Time PCR System (Life Technologies). To provide the precise quantification of the initial target in each PCR reaction, the amplification plot was examined, as well as the point of early log phase of the product accumulation, which was defined by assigning a fluorescence threshold above the background that was defined as the threshold cycle number or “Ct. Differences” in threshold cycle number that was used to quantify the relative amount of the PCR targets that were contained within each tube. After PCR, a dissociation curve (melting curve) was constructed in the range of 60 °C to 95 °C [62] to evaluate the specificity of the amplification products. The relative expression of the different amplicons was calculated using the delta–delta Ct (ΔΔCt) method and then converted into the relative expression ratio (2^−ΔΔCt) for statistical analysis. All data were normalized to the endogenous reference genes β-actin and glyceraldehyde-3-phosphate dehydrogenase. The specific primers (Table 5) that were used were designed and ordered from Integrated DNA Technologies (IDT; Coralville, IA, USA) with the following sequences: […]

CB2 [2] = test: qRT-PCR gene expression of CB2; type: cell-based, human; conditions: HaCaT cells, half-IC50 dose, 24 h, vs. control
Experimental: as §1

PPARγ = test: qRT-PCR gene expression of PPARγ; type: cell-based, human; conditions: HaCaT cells, half-IC50 dose, 24 h, vs. control
Experimental: as §1

NAPE-PLD = test: qRT-PCR gene expression of NAPE-PLD; type: cell-based, human; conditions: HaCaT cells, half-IC50 dose, 24 h, vs. control
Experimental: The HaCaT cells were seeded into 6-well plates at a density of 4 × 10^4 per well, incubated overnight and then treated with the selected pCBs (CBG (6.0 µM), CBC (4.0 µM), THCV (9.0 µM) and CBGA (13.0 µM)) for 24 h. The cell pellets were collected and RT-PCR reactions were performed using the RevertAid H Minus First Strand cDNA Synthesis Kit. The relative abundance was assessed via RT quantitative PCR (RT-qPCR) using the SensiFAST SYBR Lo-ROX Kit in an Applied Biosystems 7500 Fast Real-Time PCR System (Life Technologies). To provide the precise quantification of the initial target in each PCR reaction, the amplification plot was examined, as well as the point of early log phase of the product accumulation, which was defined by assigning a fluorescence threshold above the background that was defined as the threshold cycle number or “Ct. Differences” in threshold cycle number that was used to quantify the relative amount of the PCR targets that were contained within each tube. After PCR, a dissociation curve (melting curve) was constructed in the range of 60 °C to 95 °C [62] to evaluate the specificity of the amplification products. The relative expression of the different amplicons was calculated using the delta–delta Ct (ΔΔCt) method and then converted into the relative expression ratio (2^−ΔΔCt) for statistical analysis. […]

CB2 [3] = test: Western blot protein expression of CB2; type: cell-based, human; conditions: HaCaT cells, half-IC50 dose, 24 h, vs. control
Experimental: (§2) The HaCaT cells were seeded into 6-well plates at a density of 4 × 10^4 per well, incubated overnight and then treated with the selected pCBs (6.0 µM of CBG, 4.0 µM of CBC, 9.0 µM of THCV and 13.0 µM of CBGA) for 24 h. The cell pellets were collected and then lysed in an ice-cold lysis buffer (10 mM of EDTA, 50 mM of pH 7.4 Tris–HCl, 150 mM of sodium chloride, 1% Triton-X-100, 2 mM of phenylmethylsulfonyl fluoride, 2 mM of sodium orthovanadate, […] of leupeptin and […] of aprotinin). The amount of protein was determined using the Bio-Rad Protein assay (Bio-Rad Laboratories, Hemel Hempstead, UK). An equal amount of protein (60 µg) was loaded onto 10% sodium dodecyl sulfate–polyacrylamide gels and blotted onto polyvinylidene fluoride sheets (Amersham Biosciences, Piscataway, NJ, USA). The membranes were blocked with dried 5% non-fat milk for 1 h and then incubated with suitable primary antibodies. Detection was performed using Azure Biosystems c400 (Dublin, CA, USA). The membranes were stripped using the Restore Western Blot Stripping Buffer from Thermo Fisher Scientific (Waltham, MA, USA) for 30 min under agitation at room temperature, according to the manufacturer’s instructions. The primary antibodies (Table 6) that were used were obtained from the following sources: […]

TRPV1 = test: Western blot protein expression of TRPV1; type: cell-based, human; conditions: HaCaT cells, half-IC50 dose, 24 h, vs. control
Experimental: as §2

FAAH = test: Western blot protein expression of FAAH; type: cell-based, human; conditions: HaCaT cells, half-IC50 dose, 24 h, vs. control
Experimental: as §2

HaCaT cells = test: Apoptosis, DNA fragmentation ELISA; type: cell-based, human; conditions: 24 h
Experimental: The HaCaT cells were seeded into 96-well plates at a density of 1 × 10^4 per well, incubated overnight and then treated with the selected pCBs at different concentrations (0.5 μM, 1.0 μM, 2.5 μM, 5.0 μM, 10 μM and 25 μM) for 24 h. After treatment, apoptotic cell death was quantified for specific compounds using ELISA assays, which were based on the evaluation of DNA fragmentation through an immunoassay for histone-associated DNA fragments in the cell cytoplasm. The specific determination of mono- and oligonucleosomes in the cytoplasmic fraction of cell lysates was performed by measuring the absorbance values at 405 nm, as reported in [60].

2-AG = test: Endogenous 2-AG content by UHPLC-MS/MS; type: cell-based, human; conditions: HaCaT cells, half-IC50 dose, 24 h, vs. control
Experimental: (§3) The HaCaT cells were seeded into 6-well plates at a density of 4 × 10^4 per well, incubated overnight and then treated with the selected pCBs (6.0 µM of CBG, 4.0 µM of CBC, 9.0 µM of THCV and 13.0 µM of CBGA) for 24 h. The analytical standards that were used were N-arachidonoylethanolamine (AEA), N-arachidonoylethanolamine-d8 (AEA-d8), 2-arachidonoylglicerol (2-AG), 2-arachidonoylglicerol-d8 (2-AG-d8), N-palmitoylethanolamine (PEA) and […] (PEA-d4). The lipid fraction from these cells was extracted using chloroform–methanol–water (2:1:1 v/v) in the presence of ISs (1 ng/mL^−1 of AEA-d8, 100 ng mL^−1 of 2-AG-d8 and 1 ng mL^−1 of PEA-d4). The organic phase was dried under gentle nitrogen stream and then subjected to a micro-solid phase extraction (µSPE) procedure for a rapid clean-up using OMIX C18 tips from Agilent Technologies (Santa Clara, CA, USA). All analyses were performed using a Nexera XR LC 20 AD UHPLC system (Shimadzu Scientific Instruments, USA) that was equipped with Kinetex XB-C18 1.7 µm 100 × 2.1 mm from Phenomenex (Torrance, CA, USA) (for the LC parameters, see Figure S5) and coupled with a 4500 Qtrap from Sciex (Toronto, ON, Canada) that was equipped with a Turbo V electrospray ionization (ESI) source (the MS/MS parameters are shown in Table S1). The levels of AEA, 2-AG and PEA were then calculated as pmoles per 10^6 cells, as reported in [60].

PEA = test: Endogenous PEA content by UHPLC-MS/MS; type: cell-based, human; conditions: HaCaT cells, half-IC50 dose, 24 h, vs. control
Experimental: as §3

CB1 [4] = test: Western blot protein expression of CB1; type: cell-based, human; conditions: HaCaT cells, half-IC50 dose, 24 h, vs. control
Experimental: as §2

DAGLα = test: Western blot protein expression of DAGLα; type: cell-based, human; conditions: HaCaT cells, half-IC50 dose, 24 h, vs. control
Experimental: as §2

MAGL = test: Western blot protein expression of MAGL; type: cell-based, human; conditions: HaCaT cells, half-IC50 dose, 24 h, vs. control
Experimental: as §2

DAGLβ = test: Western blot protein expression of DAGLβ; type: cell-based, human; conditions: HaCaT cells, half-IC50 dose, 24 h, vs. control
Experimental: as §2

CB1 [5] = conditions: in vivo and in vitro; ref [53]; cited from earlier work

For `CCCCCc1cc(O)c2c(c1)OC(C)(CCC=C(C)C)C=C2` (stereo not drawn) [CBC, cannabichromene], the “Gene Expression CB1” value (CB1 [1]) was “↓++++”, the “gene expression of CB1 (in words)” value (CB1 [1]) was “significantly downregulated” and the “Gene Expression CB2” value (CB2 [2]) was “↓++”. The “gene expression of CB2 (in words)” value (CB2 [2]) was “significantly downregulated”, the “Gene Expression PPARγ” value (PPARγ) was “↓++” and the “gene expression of PPARγ (in words)” value (PPARγ) was “reduced”. For the same molecule, the “gene expression of NAPE-PLD (in words)” value (NAPE-PLD) was “significantly increased”, the “CB2 protein expression (in words)” value (CB2 [3]) was “reducing” and the “Protein Expression CB2” value (CB2 [3]) was “↓+”. For the same molecule, the “Protein Expression TRPV1” value (TRPV1) was “↑++++” and the “FAAH protein expression (in words)” value (FAAH) was “significantly increased”.

With `CCCCCc1cc(O)c(C/C=C(\C)CCC=C(C)C)c(O)c1` [CBG, cannabigerol] the “DNA fragmentation (hallmark of apoptosis)” value (“DNA fragmentation” for short) (HaCaT cells; 10 µM) was “induced the same effect”, the “DNA fragmentation” value (HaCaT cells; 25 µM) was “significant increase” and the “Gene Expression CB1” value (CB1 [1]) was “↑++++”. For the same molecule, the “gene expression of CB1 (in words)” value (CB1 [1]) was “significantly upregulate”, the “gene expression of CB2 (in words)” value (CB2 [2]) was “significantly upregulate” and the “CB2 protein expression (in words)” value (CB2 [3]) was “reducing”. The “Protein Expression CB2” value (CB2 [3]) was “↓+”, the “Protein Expression TRPV1” value (TRPV1) was “↑++++” and the “endogenous 2-AG content” value (2-AG) was “markedly increased”. The “endogenous PEA content” value (PEA) was “markedly increased”.

For `CCCCCc1cc(O)c(C/C=C(\C)CCC=C(C)C)c(O)c1C(=O)O` [CBGA, cannabigerolic acid], the “DNA fragmentation” value (HaCaT cells; 25 µM) was “significant increase”, the “CB1 protein expression (in words)” value (CB1 [4]) was “significantly reduced” and the “Protein Expression CB1” value (CB1 [4]) was “↓++++”. For the same molecule, the “CB2 protein expression (in words)” value (CB2 [3]) was “reducing”, the “Protein Expression CB2” value (CB2 [3]) was “↓++++” and the “Protein Expression TRPV1” value (TRPV1) was “↑++++”. For the same molecule, the “FAAH protein expression (in words)” value (FAAH) was “significantly increased”, the “Protein Expression FAAH” value (FAAH) was “NAPE-PLD ↑++++ FAAH ↑++++ DAGLα ↑++++ MAGL ↑++++” and the “DAGLα protein expression (in words)” value (DAGLα) was “increased”. The “Protein Expression DAGLα” value (DAGLα) was “NAPE-PLD ↑++++ FAAH ↑++++ DAGLα ↑++++ MAGL ↑++++”, the “MAGL protein expression (in words)” value (MAGL) was “increased” and the “Protein Expression MAGL” value (MAGL) was “NAPE-PLD ↑++++ FAAH ↑++++ DAGLα ↑++++ MAGL ↑++++”.

For `CCCc1cc(O)c2c(c1)OC(C)(C)[C@@H]1CCC(C)=C[C@@H]21` [THCV, Δ^9-tetrahydrocannabivarin], the “DNA fragmentation” value (HaCaT cells; all doses (0.5-25 µM)) was “ineffective”, the “Gene Expression PPARγ” value (PPARγ) was “↓++++” and the “gene expression of PPARγ (in words)” value (PPARγ) was “significantly reduced”. For the same molecule, the “CB1 protein expression (in words)” value (CB1 [4]) was “significantly reduced”, the “Protein Expression CB1” value (CB1 [4]) was “↓+” and the “CB2 protein expression (in words)” value (CB2 [3]) was “reducing”. The “Protein Expression CB2” value (CB2 [3]) was “↓+++”, the “Protein Expression TRPV1” value (TRPV1) was “↑++++” and the “DAGLα protein expression (in words)” value (DAGLα) was “increased”. The “Protein Expression DAGLα” value (DAGLα) was “↑+++”, the “DAGLβ protein expression (in words)” value (DAGLβ) was “significantly reduced” and the “Protein Expression DAGLβ” value (DAGLβ) was “↓+++”. For the same molecule, the “MAGL protein expression (in words)” value (MAGL) was “increased”, the “Protein Expression MAGL” value (MAGL) was “↑++++” and the “activity at CB1” value (CB1 [5]) was “CB1 antagonist”.
